Laboratory results taken from patent US20200254211A1, “STRESS RELIEVING DEVICE FOR VEHICLES” (DENSO CORPORATION, priority 2015, published 2020).

How the values were obtained:
[1] = system: α-II waves and θ waves in the brain; assay: human brain waves recorded in an environment where cedrol is volatilized (FIG. 3); assay type: in vivo
Procedure: Further, from the start of volatilization of cedrol and until cedrol concentration reaches 300 μg/m^3, the activity voltage of α-II waves is greater than that of θ waves, and it is understood that this is suitable for relaxing a person. Further, once cedrol concentration exceeds 300 μg/m^3, the activity voltage of […] is greater than that of α-II waves, and it is understood that this is suitable for promoting sleepiness in a person.

[2] = system: parasympathetic nerves; assay: parasympathetic nerve state with respect to cedrol concentration (FIG. 4); assay type: in vivo, human
Procedure: Then, once cedrol concentration exceeds 300 μg/m^3, due to excessive relaxation, sleepiness is promoted.

[3] = system: parasympathetic nerve state (relaxation state) of test subjects; assay: stress substitution experiment (FIG. 6); assay type: in vivo, human; conditions: average of six test subjects, cedrol in diethylene glycol monobutyl ether
Text: In this experiment, instead of actual driving, a stress substitution experiment is applied to confirm effects. The stress substitution experiment may be, for example, repetitively performing simple calculations, handling heavy objects with difficult posture, etc.
In the above stress substitution experiment, with respect to an initial state, the parasympathetic nerve state (relaxation state) of the test subjects decreases when stressed. […] In other words, it is possible for a mixture solvent of cedrol is change an irritated state to a relaxed state.

[4] = system: humans; conditions: general statement; cited from earlier work

SMILES: C[C@@H]1CC[C@H]2C(C)(C)[C@H]3C[C@@]12CC[C@@]3(C)O [cedrol]
- cedrol concentration at which activity voltage of α-II waves is greater than that of θ waves (suitable for relaxing) ([1]; from the start of volatilization): ≤ 300 μg/m^3
- activity voltages of α-II waves (relaxation) and θ waves (falling asleep) ([1]; human brain waves, volatilized cedrol, with rising concentration): both increase as the concentration of cedrol increases
- cedrol concentration at which activity voltage of θ waves is greater than that of α-II waves (promoting sleepiness) ([1]; volatilized cedrol in air): exceeds 300 μg/m^3
- lower limit of cedrol for exhibiting a relaxation effect ([2]; volatilization amount in vehicle cabin): 0.5 μg/m^3
- cedrol concentration at which sleepiness is promoted due to excessive relaxation ([2]; volatilized cedrol in air): exceeds 300 μg/m^3
- parasympathetic nerve state with increasing cedrol concentration ([2]; volatilized cedrol in air): parasympathetic nerves become significant
- parasympathetic nerve state (relaxation state) after release of mixture solvent vapor to stressed test subjects [3]: increases to above the initial state
- physiological effects in humans [4]: lowering heat rate, respiratory rate, blood pressure, etc. in humans, and also increasing α-II waves in the brain
